Measured values as given in patent US20020045268A1, “MEASURING ANALYTES WITH METAL-LIGAND COMPLEX PROBES” (priority 1997, published 2002).
“Also recorded” adds a separate entry of the source.

What was measured:
Type in all cases: physicochemical
[1] = pH-dependent intensity, phase and modulation data of FIG. 15 and emission spectrum of the dcbpy complex; conditions: relative to Ru(bpy)3
Source text: FIG. 15 graphically depicts data in connection with the metal-ligand complex [Ru(bpy)2 (dcbpy)]Cl4 showing pH-dependent intensity, phase and modulation data.
The emission shift to longer wavelengths at low pH (FIG. 2) seems to be generally understandable in terms of the electronic properties of the excited MLCs. The long wavelength emission is thought to result from a metal-to-ligand charge transfer (MLCT) state in which an electron is donated from Ru to the ligand. The protonated form of deabpy is probably a better electron acceptor, lowering the energy of the MLCT state, shifting the emission to longer wavelengths and thereby decreasing the lifetime. […] Terpetschnig, E., H. Szmacinski, H. Malak and J. R. Lakowicz. Biophys. J., 68:342-350; Fluorescence Polarization Immunoassay of a High Molecular Weight Antigen Based on a Long-Lifetime Ru-Ligand Complex (1995). Terpetschnig, E., H. Szmacinski and J. R. Lakowicz. Anal. Biochem., 227:140-147].
The dcbpy ligand is probably a better electron acceptor than bpy. […] It could be used at a pH in the range of pH 2 to 5.

[2] = pH-dependent absorption at 450 nm (ground state pKa); conditions: from changes in absorption at 450 nm
Method: Chemicals and solvents were purchased from Aldrich and used without further purification. Absorption spectra were measured using a Perkin Elmer lambda 6 UV/Vis spectrophotometer. Observed were two isosbestic points at 414 nm and 475 nm. The absorbance at 450 nm of different samples were measured to obtain the ground state pKa.
(§1) Ru(bpy)2 (deabpy) (PF6)2 solutions at different pH value were prepared by dissolving equal amount of aqueous Ru(bpy)2 (deabpy) (PF6)2 in different buffer solutions. From pH 2 to pH 4.7, we used citrate buffer; from pH 4.8 to pH 6.3 we used acetate buffer; from pH 6.4 to pH 7.8 we used phosphate buffer; from pH 7.8 to pH 9.0 we used tris buffer, from pH 9.2 to pH 11 we used carbonate/bicarbonate buffer, from pH 11 to pH 12 we used dibasic sodium phosphate/sodium hydroxide buffer. Unless stated otherwise the buffer concentrations were 20 mM and contained 0.1 M potassium chloride to maintain ionic strength.

[3] = frequency-domain intensity decay (lifetime) measurements, single and global multi-exponential analysis
Source text: For the phase/modulation measurements (FIGS. 6-9), an air-cooled Argon ion laser (output at 488 nm) was used as the excitation light source, and the modulation frequency was set at 700 kHz. On the emission side, a long-wave pass filter was used to collect the fluorescence with wavelength longer than 600 nm. The reference solution used here was an aqueous solution of Texas Red with a reference lifetime of 4 ns. For the lifetime measurements, we used the same instrumentation and reference solution, and 23 different modulation frequencies ranging from 11 kHz to 2 MHZ.
Single and multi-exponential intensity decays were recovered from the multi-frequency data as described previously [see, Construction and Performance of a Variable-Frequency Phase-Modulation Fluorometer (1985). Lakowicz, J. R. and B. P. Maliwal. Biophys. Chem., 21:61-78; Frequency-Domain Fluorescence Spectroscopy (1991) in Topics in Fluorescence Spectroscopy, Vol. 1: Techniques, (Lakowicz, J. R., Ed.). Plenum Press, New York, pp. 293-355]. The data were analyzed globally in terms of the multi-exponential model [formula]
where Ik(t) are the intensity decays at each pH (k) value, Ti are the decay times and αik are the amplitudes. For the global analysis we assumed that the αik values would depend on pH, but that the two lifetimes would be independent of pH. The goodness-of-fit was judged by the usual XR^2 criterion with assumed uncertainties in phase δp=0.2° and modulation δm=0.005.

[4] = pH-dependent fluorescence emission spectra and intensities in buffers
Method: as §1
The fluorescence emission spectra were measured using Aminco Bowman Series AB2 Luminescence Spectrometer with the excitation wavelength of 414 nm. […] The emission intensity ratios (620 nm/650 nm) of the different sample were also recorded.

## O=C(O)c1ccnc(-c2cc(C(=O)O)ccn2)c1.[Ru+2].c1ccc(-c2ccccn2)nc1.c1ccc(-c2ccccn2)nc1 [[Ru(dcbpy)(bpy)2]^2+]
[1]
  emission spectrum shift: red shift

## CCN(CC)Cc1ccnc(-c2cc(CN(CC)CC)ccn2)c1.[Ru+2].c1ccc(-c2ccccn2)nc1.c1ccc(-c2ccccn2)nc1 [[Ru(deabpy)(bpy)2]^2+]
[2]
  ground state pKa: 7.14
[3]; high pH
  mean decay time: ~390 ns
[3]; low pH, protonated amino groups
  mean decay time: ~240 ns
[3]; pH 2.4
  α1, amplitude of 235 ns component, global analysis: 0.964
  α2, amplitude of 380 ns component, global analysis: 0.036
  τ2 (ns), global analysis: 380 ns
  τi (ns), global analysis: 235 ns
[3]; pH 2.40
  τ(ns), single decay time analysis: 236 ns
[3]; pH 5.8
  α1, amplitude of 235 ns component, global analysis: 0.893
  α2, amplitude of 380 ns component, global analysis: 0.107
  τ2 (ns), global analysis: 380 ns
  τi (ns), global analysis: 235 ns
[3]; pH 5.89
  τ(ns), single decay time analysis: 252 ns
[3]; pH 6.91
  α1, amplitude of 235 ns component, global analysis: 0.828
  α2, amplitude of 380 ns component, global analysis: 0.172
  τ2 (ns), global analysis: 380 ns
  τ(ns), single decay time analysis: 262 ns
  τi (ns), global analysis: 235 ns
[3]; pH 7.45
  α1, amplitude of 235 ns component, global analysis: 0.687
  α2, amplitude of 380 ns component, global analysis: 0.313
  τ2 (ns), global analysis: 380 ns
  τ(ns), single decay time analysis: 284 ns
  τi (ns), global analysis: 235 ns
[3]; pH 8.02
  α1, amplitude of 235 ns component, global analysis: 0.380
  α2, amplitude of 380 ns component, global analysis: 0.620
  τ2 (ns), global analysis: 380 ns
  τ(ns), single decay time analysis: 327 ns
  τi (ns), global analysis: 235 ns
[3]; pH 13.5
  α1, amplitude of 235 ns component, global analysis: 0
  α2, amplitude of 380 ns component, global analysis: 1.0
  τ2 (ns), global analysis: 380 ns
  τ(ns), single decay time analysis: 392 ns
  τi (ns), global analysis: 235 ns
[3]; protonated form
  decay time, global analysis: 235 ns
[3]; unprotonated form
  decay time, global analysis: 380 ns
[4]; 20, 50 and 100 mM phosphate buffer
  dependence of apparent pKa on ionic strength / buffer concentration: not found to be dependent on ionic strength; also recorded: same apparent pKa values
[4]; acidic sample (low pH), excitation 414 nm
  emission maximum: 650 nm
[4]; as pH increases from 2.52 to 11.8
  increase of emission spectrum: about 3 fold
[4]; basic sample, excitation 414 nm
  emission maximum: 620 nm
[4]; pH-dependent fluorescence intensities, excitation 414 nm
  apparent pKa observed by fluorescence: ~7.5
